Source: ChEMBL document CHEMBL1129074, “Inhibitors of human immunodeficiency virus type 1 derived from gp41 transmembrane protein: structure--activity studies” (J Med Chem, 1996)
Peptide text beside a SMILES is read from it.

tested on: MT4; test: Inhibitory potency of gp41 fragment against HIV-1 induced cytopathic effect in MT-4 cell assay; type: functional, cell-based; conditions: Homo sapiens

Question: Which IC50 does the source give for `CC[C@H](C)[C@H](NC(=O)CNC(=O)[C@H](Cc1c[nH]c2ccccc12)NC(=O)[C@@H](NC(=O)[C@@H](NC(=O)[C@H](CC(C)C)NC(=O)[C@H](CCC(N)=O)NC(=O)[C@H](CC(C)C)NC(=O)CNC(=O)CNC(=O)[C@H](CS)NC(C)=O)[C@@H](C)O)C(C)C)C(=O)N[C@@H](CCCCN)C(=O)N[C@@H](CCC(N)=O)C(=O)N[C@@H](CC(C)C)C(=O)N[C@@H](CCC(N)=O)C(=O)N[C@@H](C)C(=O)N[C@@H](CCCN=C(N)N)C(=O)N[C@H](C(=O)N[C@@H](CC(C)C)C(=O)N[C@@H](C)C(=O)N[C@H](C(=O)N[C@@H](CCC(=O)O)C(=O)N[C@@H](CCCN=C(N)N)C(=O)N[C@@H](Cc1ccc(O)cc1)C(=O)N[C@@H](CC(C)C)C(=O)N[C@@H](CCCCN)C(=O)N[C@@H](CC(=O)O)C(=O)N[C@@H](CCC(N)=O)C(=O)O)C(C)C)[C@@H](C)CC` (Ac-CGGLQLTVWGIKQLQARILAVERYLKDQ-OH) here?
Answer: Its IC50 is 60.5 µM.

Question: Which IC50 does the source give for `CC[C@H](C)[C@H](NC(=O)CNC(=O)[C@H](Cc1c[nH]c2ccccc12)NC(=O)[C@@H](NC(=O)[C@@H](NC(=O)[C@H](CC(C)C)NC(=O)[C@H](CCC(N)=O)NC(=O)[C@H](CC(C)C)NC(=O)[C@H](CC(C)C)NC(=O)[C@H](Cc1c[nH]cn1)NC(=O)[C@H](CCC(N)=O)NC(=O)[C@H](CCC(N)=O)NC(=O)[C@H](C)NC(=O)[C@H](CCC(=O)O)NC(=O)[C@@H](NC(=O)[C@H](C)NC(=O)[C@H](CCCN=C(N)N)NC(=O)[C@H](CC(C)C)NC(=O)[C@H](CC(C)C)NC(=O)[C@H](CC(N)=O)NC(=O)[C@H](CC(N)=O)NC(=O)CNC(=O)CNC(=O)[C@H](CS)NC(C)=O)[C@@H](C)CC)[C@@H](C)O)C(C)C)C(=O)N[C@@H](CCCCN)C(=O)N[C@@H](CCC(N)=O)C(=O)O` (Ac-CGGNNLLRAIEAQQHLLQLTVWGIKQ-OH) here?
Answer: The IC50 was 14.8 µM.

Question: `CC[C@H](C)[C@H](NC(C)=O)C(=O)N[C@@H](CCC(=O)O)C(=O)N[C@@H](C)C(=O)N[C@@H](CCC(N)=O)C(=O)N[C@@H](CCC(N)=O)C(=O)N[C@@H](Cc1c[nH]cn1)C(=O)N[C@@H](CC(C)C)C(=O)N[C@@H](CC(C)C)C(=O)N[C@@H](CCC(N)=O)C(=O)N[C@@H](CC(C)C)C(=O)N[C@H](C(=O)N[C@H](C(=O)N[C@@H](Cc1c[nH]c2ccccc12)C(=O)NCC(=O)N[C@H](C(=O)N[C@@H](CCCCN)C(=O)N[C@@H](CCC(N)=O)C(=O)N[C@@H](CC(C)C)C(=O)N[C@@H](CCC(N)=O)C(=O)N[C@@H](C)C(=O)N[C@@H](CCCN=C(N)N)C(=O)N[C@H](C(=O)N[C@@H](CC(C)C)C(=O)N[C@@H](C)C(=O)N[C@H](C(=O)N[C@@H](CCC(=O)O)C(=O)O)C(C)C)[C@@H](C)CC)[C@@H](C)CC)C(C)C)[C@@H](C)O` (Ac-IEAQQHLLQLTVWGIKQLQARILAVE-OH) was tested. Which IC50 did it give?
Answer: The IC50 was 6.5 µM.

Question: For `CC[C@H](C)[C@H](NC(=O)CNC(=O)[C@H](Cc1c[nH]c2ccccc12)NC(=O)[C@@H](NC(=O)[C@@H](NC(=O)[C@H](CC(C)C)NC(=O)[C@H](CCC(N)=O)NC(=O)[C@H](CC(C)C)NC(=O)[C@H](CC(C)C)NC(=O)[C@H](Cc1c[nH]cn1)NC(=O)[C@H](C)NC(=O)[C@H](CCC(N)=O)NC(=O)[C@H](C)NC(=O)[C@H](CCC(=O)O)NC(=O)[C@@H](NC(=O)[C@H](C)NC(=O)[C@H](CCCN=C(N)N)NC(=O)[C@H](C)NC(=O)[C@H](CC(C)C)NC(=O)[C@H](CC(N)=O)NC(=O)[C@H](CC(N)=O)NC(C)=O)[C@@H](C)CC)[C@@H](C)O)C(C)C)C(=O)N[C@@H](CCCCN)C(=O)N[C@@H](CCC(N)=O)C(=O)N[C@@H](CC(C)C)C(=O)N[C@@H](CCC(N)=O)C(=O)N[C@@H](C)C(=O)N[C@@H](CCCN=C(N)N)C(=O)N[C@H](C(=O)N[C@@H](CC(C)C)C(=O)N[C@@H](C)C(=O)N[C@H](C(=O)N[C@@H](CCC(=O)O)C(=O)N[C@@H](CCCN=C(N)N)C(=O)N[C@@H](Cc1ccc(O)cc1)C(=O)N[C@@H](CC(C)C)C(=O)N[C@@H](CCCCN)C(=O)N[C@@H](CC(=O)O)C(=O)N[C@@H](CCC(N)=O)C(=O)O)C(C)C)[C@@H](C)CC` (Ac-NNLARAIEAQAHLLQLTVWGIKQLQARILAVERYLKDQ-OH), which IC50 is on record?
Answer: Its IC50 is 3 µM.

Question: Which IC50 does the source give for `CC[C@H](C)[C@H](NC(=O)CNC(=O)[C@H](Cc1c[nH]c2ccccc12)NC(=O)[C@@H](NC(=O)[C@@H](NC(=O)[C@H](CC(C)C)NC(=O)[C@H](CCC(N)=O)NC(=O)[C@H](CC(C)C)NC(=O)[C@H](CC(C)C)NC(=O)[C@H](Cc1c[nH]cn1)NC(=O)[C@H](CCC(N)=O)NC(C)=O)[C@@H](C)O)C(C)C)C(=O)N[C@@H](CCCCN)C(=O)N[C@@H](CCC(N)=O)C(=O)N[C@@H](CC(C)C)C(=O)N[C@@H](CCC(N)=O)C(=O)N[C@@H](C)C(=O)N[C@@H](CCCN=C(N)N)C(=O)N[C@H](C(=O)N[C@@H](CC(C)C)C(=O)N[C@@H](C)C(=O)N[C@H](C(=O)N[C@@H](CCC(=O)O)C(=O)O)C(C)C)[C@@H](C)CC` (Ac-QHLLQLTVWGIKQLQARILAVE-OH) here?
Answer: Its IC50 is 4.3 µM.

Question: `CC[C@H](C)[C@H](NC(=O)CNC(=O)[C@H](Cc1c[nH]c2ccccc12)NC(=O)[C@@H](NC(=O)[C@@H](NC(=O)[C@H](CC(C)C)NC(=O)[C@H](CCC(N)=O)NC(=O)[C@H](CC(C)C)NC(=O)[C@H](CC(C)C)NC(=O)[C@H](Cc1c[nH]cn1)NC(=O)[C@H](CCC(N)=O)NC(=O)[C@H](CCC(N)=O)NC(=O)[C@H](C)NC(=O)[C@H](CCC(=O)O)NC(=O)[C@@H](NC(=O)[C@H](C)NC(=O)[C@H](CCCN=C(N)N)NC(=O)[C@H](CC(C)C)NC(=O)[C@H](CC(C)C)NC(=O)[C@H](CC(N)=O)NC(=O)[C@@H](N)CC(N)=O)[C@@H](C)CC)[C@@H](C)O)C(C)C)C(=O)N[C@@H](CCCCN)C(=O)N[C@@H](CCC(N)=O)C(=O)N[C@@H](CC(C)C)C(=O)N[C@@H](CCC(N)=O)C(=O)N[C@@H](C)C(=O)N[C@@H](CCCN=C(N)N)C(=O)N[C@H](C(=O)N[C@@H](CC(C)C)C(=O)N[C@@H](C)C(=O)N[C@H](C(=O)N[C@@H](CCC(=O)O)C(=O)N[C@@H](CCCN=C(N)N)C(=O)N[C@@H](Cc1ccc(O)cc1)C(=O)N[C@@H](CC(C)C)C(=O)N[C@@H](CCCCN)C(=O)N[C@@H](CC(=O)O)C(=O)N[C@@H](CCC(N)=O)C(=O)O)C(C)C)[C@@H](C)CC` (H-NNLLRAIEAQQHLLQLTVWGIKQLQARILAVERYLKDQ-OH) was tested. Which IC50 did it give?
Answer: The IC50 was 2.7 µM.

Question: `CC[C@H](C)[C@H](NC(=O)CNC(=O)[C@H](Cc1c[nH]c2ccccc12)NC(=O)[C@@H](NC(=O)[C@@H](NC(=O)[C@H](CC(C)C)NC(=O)[C@H](CCC(N)=O)NC(=O)[C@H](CC(C)C)NC(=O)[C@H](CC(C)C)NC(=O)CCCCCN)[C@@H](C)O)C(C)C)C(=O)N[C@@H](CCCCN)C(=O)N[C@@H](CCC(N)=O)C(=O)N[C@@H](CC(C)C)C(=O)N[C@@H](CCC(N)=O)C(=O)N[C@@H](C)C(=O)N[C@@H](CCCN=C(N)N)C(=O)N[C@H](C(=O)N[C@@H](CC(C)C)C(=O)O)[C@@H](C)CC` (HELM PEPTIDE1{[NCCCCCC(=O)[*:2]].L.L.Q.L.T.V.W.G.I.K.Q.L.Q.A.R.I.L}$$$$V2.0) was tested. Which IC50 did it give?
Answer: Its IC50 is 10.4 µM.
